Test results: ChEMBL document CHEMBL3525905, “Brain distribution and bioavailability of elacridar after different routes of administration in the mouse” (Drug Metab Dispos, 2012)

Columns and labels:
[1] = Terminal half life in wild type FVB mouse plasma at 100 mg/kg, po; assay type: ADME, organism-based; set-up: dose 100 mg/kg, route oral; conditions: read-out: beta t1/2 (converted)
[2] = Terminal half life in wild type FVB mouse brain at 100 mg/kg, po; assay type: ADME, organism-based; set-up: dose 100 mg/kg, route oral; conditions: read-out: beta t1/2 (converted)
[3] = Terminal half life in wild type FVB mouse brain at 100 mg/kg, ip; assay type: ADME, organism-based; set-up: dose 100 mg/kg, route intraperitoneal; conditions: read-out: beta t1/2 (converted)
[4] = Terminal half life in wild type FVB mouse plasma at 100 mg/kg, ip; assay type: ADME, organism-based; set-up: dose 100 mg/kg, route intraperitoneal; conditions: read-out: beta t1/2 (converted)
[5] = Terminal half life in wild type FVB mouse plasma at 2.5 mg/kg, iv; assay type: ADME, organism-based; set-up: dose 2.5 mg/kg, route intravenous; conditions: read-out: beta t1/2 (converted)
[6] = Terminal half life in wild type FVB mouse brain at 2.5 mg/kg, iv; assay type: ADME, organism-based; set-up: dose 2.5 mg/kg, route intravenous; conditions: read-out: beta t1/2 (converted)
[7] = Cmax in wild type FVB mouse plasma at 100 mg/kg, ip; assay type: ADME, organism-based; set-up: dose 100 mg/kg, route intraperitoneal
[8] = Cmax in wild type FVB mouse brain at 100 mg/kg, ip; assay type: ADME, organism-based; set-up: dose 100 mg/kg, route intraperitoneal
[9] = Cmax in wild type FVB mouse plasma at 2.5 mg/kg, iv; assay type: ADME, organism-based; set-up: dose 2.5 mg/kg, route intravenous
[10] = Cmax in wild type FVB mouse brain at 2.5 mg/kg, iv; assay type: ADME, organism-based; set-up: dose 2.5 mg/kg, route intravenous
[11] = Cmax in wild type FVB mouse plasma at 100 mg/kg, po; assay type: ADME, organism-based; set-up: dose 100 mg/kg, route oral
[12] = Cmax in wild type FVB mouse brain at 100 mg/kg, po; assay type: ADME, organism-based; set-up: dose 100 mg/kg, route oral
[13] = Tmax in wild type FVB mouse plasma at 2.5 mg/kg, iv; assay type: ADME, organism-based; set-up: dose 2.5 mg/kg, route intravenous
[14] = Tmax in wild type FVB mouse brain at 2.5 mg/kg, iv; assay type: ADME, organism-based; set-up: dose 2.5 mg/kg, route intravenous
[15] = Tmax in wild type FVB mouse plasma at 100 mg/kg, ip; assay type: ADME, organism-based; set-up: dose 100 mg/kg, route intraperitoneal
[16] = Tmax in wild type FVB mouse brain at 100 mg/kg, ip; assay type: ADME, organism-based; set-up: dose 100 mg/kg, route intraperitoneal
[17] = Tmax in wild type FVB mouse plasma at 100 mg/kg, po; assay type: ADME, organism-based; set-up: dose 100 mg/kg, route oral
[18] = Tmax in wild type FVB mouse brain at 100 mg/kg, po; assay type: ADME, organism-based; set-up: dose 100 mg/kg, route oral
[19] = AUC (0 to last) in wild type FVB mouse plasma at 2.5 mg/kg, iv; assay type: ADME, organism-based; set-up: time 0 - last, dose 2.5 mg/kg, route intravenous
[20] = AUC (0 to last) in wild type FVB mouse brain at 2.5 mg/kg, iv; assay type: ADME, organism-based; set-up: time 0 - last, dose 2.5 mg/kg, route intravenous
[21] = AUC (0 to last) in wild type FVB mouse plasma at 100 mg/kg, ip; assay type: ADME, organism-based; set-up: time 0 - last, dose 100 mg/kg, route intraperitoneal
[22] = AUC (0 to last) in wild type FVB mouse brain at 100 mg/kg, ip; assay type: ADME, organism-based; set-up: time 0 - last, dose 100 mg/kg, route intraperitoneal
[23] = AUC (0 to last) in wild type FVB mouse plasma at 100 mg/kg, po; assay type: ADME, organism-based; set-up: time 0 - last, dose 100 mg/kg, route oral
[24] = AUC (0 to last) in wild type FVB mouse brain at 100 mg/kg, po; assay type: ADME, organism-based; set-up: time 0 - last, dose 100 mg/kg, route oral
Plasma [25] = assay: AUC (0 to infinity) in wild type FVB mouse plasma at 2.5 mg/kg, iv; assay type: ADME, organism-based; set-up: time infinity, dose 2.5 mg/kg, route intravenous; conditions: in vivo
[26] = AUC (0 to infinity) in wild type FVB mouse brain at 2.5 mg/kg, iv; assay type: ADME, organism-based; set-up: time infinity, dose 2.5 mg/kg, route intravenous
Plasma [27] = assay: AUC (0 to infinity) in wild type FVB mouse plasma at 100 mg/kg, ip; assay type: ADME, organism-based; set-up: time infinity, dose 100 mg/kg, route intraperitoneal; conditions: in vivo
[28] = AUC (0 to infinity) in wild type FVB mouse brain at 100 mg/kg, ip; assay type: ADME, organism-based; set-up: dose 100 mg/kg, route intraperitoneal, time infinity
[29] = AUC (0 to infinity) in wild type FVB mouse plasma at 100 mg/kg, po; assay type: ADME, organism-based; set-up: time infinity, dose 100 mg/kg, route oral
[30] = AUC (0 to infinity) in wild type FVB mouse brain at 100 mg/kg, po; assay type: ADME, organism-based; set-up: time infinity, dose 100 mg/kg, route oral
[31] = Ratio of AUC in brain to plasma in wild type FVB mouse plasma at 2.5 mg/kg, iv; assay type: ADME, organism-based; set-up: dose 2.5 mg/kg, route intravenous; conditions: brain and plasma
[32] = Ratio of AUC in brain to plasma in wild type FVB mouse plasma at 100 mg/kg, ip; assay type: ADME, organism-based; set-up: dose 100 mg/kg, route intraperitoneal; conditions: brain and plasma
[33] = Ratio of AUC in brain to plasma in wild type FVB mouse plasma at 100 mg/kg, po; assay type: ADME, organism-based; set-up: dose 100 mg/kg, route oral; conditions: brain and plasma
[34] = Apparent plasma clearance in wild type FVB mouse plasma at 100 mg/kg, ip; assay type: ADME, organism-based; set-up: dose 100 mg/kg, route intraperitoneal
[35] = Apparent plasma clearance in wild type FVB mouse at 100 mg/kg, po; assay type: ADME, organism-based; set-up: dose 100 mg/kg, route oral
[36] = Apparent oral volume of distribution in wild type FVB mouse at 100 mg/kg, po; assay type: ADME, organism-based; set-up: dose 100 mg/kg, route oral; conditions: plasma
[37] = Apparent oral volume of distribution in wild type FVB mouse plasma at 100 mg/kg, ip; assay type: ADME, organism-based; set-up: dose 100 mg/kg
Plasma [38] = assay: Apparent plasma clearance in wild type FVB mouse plasma at 2.5 mg/kg, iv; assay type: ADME, organism-based; set-up: dose 2.5 mg/kg, route intravenous; conditions: in vivo
[39] = Apparent oral volume of distribution in wild type FVB mouse plasma at 2.5 mg/kg, iv; assay type: ADME, organism-based; set-up: dose 2.5 mg/kg
[40] = Oral bioavailability in wild type FVB mouse at 100 mg/kg; assay type: ADME, organism-based; conditions: plasma
Plasma [41] = assay: Bioavailability in wild type FVB mouse at 100 mg/kg, ip; assay type: ADME, organism-based; conditions: in vivo
Plasma [42] = assay: Bioavailability in wild type FVB mouse at 2.5 mg/kg, iv; assay type: ADME, organism-based; conditions: in vivo
[43] = […] Kp, ratio of AUC in brain to plasma in wild type FVB mouse plasma at 10 mg/kg, ip; assay type: ADME, organism-based; set-up: dose 10 mg/kg, route intraperitoneal; conditions: brain and plasma
[44] = Lipophilicity, logP of the compound; assay type: physicochemical; conditions: octanol/water

SMILES: COc1cc2c(cc1OC)CN(CCc1ccc(NC(=O)c3cccc4c(=O)c5cccc(OC)c5[nH]c34)cc1)CC2 [ELACRIDAR]
- half-life [1]: 20 h
- half-life [2]: 16 h
- half-life [3]: 9.2 h
- half-life [4]: 4.3 h
- half-life [5]: 4.4 h
- half-life [6]: 1.5 h
- Cmax [7]: 295 ng/mL
- Cmax [8]: 61 ng/mL
- Cmax [9]: 564 ng/mL
- Cmax [10]: 1050 ng/mL
- Cmax [11]: 780 ng/mL
- Cmax [12]: 4340 ng/mL
- Tmax [13]: 0.5 h
- Tmax [14]: 0.5 h
- Tmax [15]: 0.5 h
- Tmax [16]: 4 h
- Tmax [17]: 8 h
- Tmax [18]: 8 h
- AUC(0-t) [19]: 2310 ng·h/mL
- AUC(0-t) [20]: 2140 ng·h/mL
- AUC(0-t) [21]: 1060 ng·h/mL
- AUC(0-t) [22]: 332 ng·h/mL
- AUC(0-t) [23]: 13200 ng·h/mL
- AUC(0-t) [24]: 64800 ng·h/mL
- AUC (Plasma [25]): 161.4 µg·min/mL
- AUC(0-inf) [26]: 2190 ng·h/mL
- AUC (Plasma [27]): 90.3 µg·min/mL
- AUC(0-inf) [28]: 725 ng·h/mL
- AUC(0-inf) [29]: 24300 ng·h/mL
- AUC(0-inf) [30]: 105000 ng·h/mL
- Kp [31]: 0.82
- Kp [32]: 0.48
- Kp [33]: 4.31
- CL/F [34]: 33.2 mL/min
- CL/F [35]: 2.05 mL/min
- Vd/F [36]: 3.5 L
- Vd/F [37]: 12.3 L
- CL/F (Plasma [38]): 0.46 mL/min
- Vd/F [39]: 0.17 L
- bioavailability [40]: 22%
- F (Plasma [41]): 13%
- F (Plasma [42]): 100%
- Kp [43]: 0.0784
- logP [44]: 5.67
